Where “and” joins values, the source holds several entries; their conditions need not be identical. Equal entries are not always repeated.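 Method: 48-hour compound exposure of cells in 96-well plates, five concentrations, linear interpolation of endpoints. The concentration for 50% growth inhibition is given as GI50. Definition used: TGI = concentration required for complete inhibition of growth.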 Some results are limits rather than exact numbers.

What all share (assay): inhibition of tumour cell growth, NCI panel, 48 h
Test [1] relates to RXF 393 renal.
The subject of test [2] is HOP-92 NSCLC.
The subject of test [3] is HT29 colon.
In test [4] the test system is RPMI-8226 leukemia.
Test [5] concerns TK-10 renal.
Test [6] concerns SK-MEL-28 melanoma.
The test system of test [7] is ACHN renal.
In test [8] the test system is A498 renal.
In test [9] the test system is CCRF-CEM leukemia.
For test [10], the system named is OVCAR-3 ovarian.

As to `COC(=O)C12OCC34C(CC5C(C)=CC(=O)C(O)C5(C)C3C(O)C1O)OC(=O)C(OC(=O)CC(C)C)C24` (centres undefined), the GI50 in [1] is 0.0427 µM and 0.05 µM; in [2], 0.0442 µM and 0.05 µM; in [3] it was 0.0588 µM; in test [4], less than 0.0289 µM; in test [5] it was 0.0166 µM; in [6] it was < 0.0352 µM and 0.05 µM. Further, the GI50 in [7] is 0.0193 µM; in test [8], less than 0.0575 µM; in [9] it was < 0.0503 µM and 0.05 µM; in test [10], less than 0.0518 µM. The TGI in test [2] is 0.0174 µM and 0.119 µM and 0.0651 µM; in test [5], 0.16 µM and 0.477 µM; in test [7] it was 0.3 µM and 0.174 µM; in test [8], 0.00627 µM and < 0.0791 µM.
Turning to `COc1ccc2c(c1)c(=O)oc1cc(OC/C(=N\O)c3ccc(F)cc3)ccc12`, the GI50 was 21.8 µM in test [1]; 24.9 µM in [2]; 15.5 µM in test [3]; 16.7 µM in test [4]; 17.5 µM in test [5]; 15.7 µM in test [6]. In addition, the GI50 is 21 µM in test [7], 16.7 µM in test [8], 7.07 µM in test [9] and 20.4 µM in [10]. Further, the TGI stood at 58.6 µM in test [1]; 72.2 µM in [2]; 36.6 µM in test [3]; 56.4 µM in test [4]; 52.8 µM in test [5]; 31 µM in test [6]. Further, the TGI in test [7] was 55.4 µM; in test [8], 35.3 µM; in test [9], greater than 100 µM; in test [10], 47.4 µM.
`CCNCCNc1cc(C2CCCC2)c(C#N)c2nc3ccccc3n12`: the GI50 is 1.81 µM in test [1]; 2.08 µM in [2]; 2.37 µM in [3]; 2.69 µM in test [4]; 1.84 µM in [5]; 1.84 µM in [6]. Also, the GI50 in test [7] was 1.91 µM; in test [8] it was 2.67 µM; in test [9], 2.46 µM; in [10] it was 1.7 µM. The TGI in test [1] was 4 µM; in test [2] it was 4.4 µM; in test [3], 5.98 µM; in [4], 7.35 µM; in [5], 5.14 µM; in test [6], 3.68 µM. The TGI in test [7] turned out to be 4 µM; in [8], 8.32 µM; in test [9], 7.75 µM; in test [10] it was 3.18 µM.
As for `O=C1C=CC(=O)N1CCCCCCCCCCN1C(=O)C=CC1=O`, the GI50 in test [1] is 3.13 µM; in [2], 20.8 µM; in [3], 4.67 µM; in test [4], 6.72 µM; in test [5], 22.9 µM; in test [6] it was 14.8 µM. Moreover, the GI50 was 4.85 µM in [7], 20 µM in test [8], 4.05 µM in test [9] and 4.1 µM in test [10]. For the same molecule, the TGI in [1] came out at 11.3 µM; in test [2] it was 37 µM; in [3], 26.7 µM; in [4], 57.7 µM; in test [5] it was 69 µM; in test [6], 30.9 µM. Besides, the TGI in test [7] was 16.8 µM; in test [8], 49.7 µM; in [9] it was greater than 100 µM; in test [10] it was 15.1 µM.
For `COc1cccc(-c2cc(NCc3ccc4c(c3)OCO4)nc(N)n2)c1`, the GI50 is 0.11 µM in test [1]; 4.04 µM in test [2]; 0.0423 µM in [3]; 0.172 µM in [4]; 8.96 µM in test [5]; 0.0724 µM in test [6]. The GI50 was 0.24 µM in test [7], 0.033 µM in [8], 0.0762 µM in test [9] and 0.0409 µM in test [10]. Further, the TGI was determined as 17.2 µM in test [1]; 20.5 µM in test [2]; 6.84 µM in test [3]; 34.2 µM in [4]; 29 µM in test [5]; 19.7 µM in test [6]. For the same molecule, the TGI in test [7] is 29.3 µM; in test [8], 0.763 µM; in test [9], greater than 100 µM; in test [10], 0.988 µM.
Consider `[O-][N+]1=C(c2ccccc2)COc2ccccc21`, for which the TGI in [1], in [2], in [3], in [4], in test [5] and in [6] was greater than 100 µM throughout. Moreover, the TGI in test [7], in test [8], in test [9] and in [10] was greater than 100 µM each time.
Take `O=C(O)C#Cc1ccc([N+](=O)[O-])cc1`: the TGI in test [1], in test [2], in test [3], in test [4], in [5] and in [6] was greater than 100 µM each time. Further, the TGI in [7], in test [8], in [9] and in [10] was greater than 100 µM each time.
For `Cc1cc(NC(=O)C(=O)Cc2nc3ccccc3s2)ccc1Cl`, the TGI in test [1], in test [2], in test [3], in test [4], in test [5] and in test [6] was greater than 100 µM throughout. Besides, the TGI in test [7], in test [8], in test [9] and in test [10] was greater than 100 µM throughout.
Consider `O=C(Nc1ncc(Cc2ccc(Cl)cc2)s1)c1ccc2c(c1)OCCO2`, for which the GI50 in test [1] was 0.0326 µM; in test [2], 2.12 µM; in [3], 0.171 µM; in test [4], 0.0526 µM; in test [5], 0.245 µM; in test [6], 1.02 µM. The GI50 in test [7] is 0.0645 µM; in test [8], 0.0187 µM; in test [9], 0.0639 µM; in test [10] it was 0.0335 µM. The TGI was 0.567 µM in test [1]; greater than 100 µM in [2]; greater than 43.4 µM in test [3]; greater than 100 µM in [4]; greater than 32.5 µM in test [5]; greater than 100 µM in test [6]. Moreover, the TGI in test [7] is greater than 54.5 µM; in test [8] it was 0.0809 µM; in test [9], greater than 100 µM; in [10], 0.398 µM.
